Experiment: Solubility of lab-made phthalocyanines in organic solvents
Assay type: physicochemical

solubility (THF)	solubility (acetone)	solubility (methanol)	solubility (n-hexane)	solubility (toluene)	Structure (SMILES)
◯ (slightly soluble (1 wt. % ˜ 3 wt. %))	◯ (slightly soluble (1 wt. % ˜ 3 wt. %))	Δ (hardly soluble (<1 wt. %))	Δ (hardly soluble (<1 wt. %))	◯ (slightly soluble (1 wt. % ˜ 3 wt. %))	[Co+2].c1ccc2c(c1)-c1nc-2nc2[n-]c(nc3nc(nc4[n-]c(n1)c1ccccc41)-c1ccccc1-3)c1ccccc21 [CoPc]
◯ (slightly soluble (1 wt. % ˜ 3 wt. %))	◯ (slightly soluble (1 wt. % ˜ 3 wt. %))	Δ (hardly soluble (<1 wt. %))	Δ (hardly soluble (<1 wt. %))	◯ (slightly soluble (1 wt. % ˜ 3 wt. %))	[Ni+2].c1ccc2c(c1)-c1nc-2nc2[n-]c(nc3nc(nc4[n-]c(n1)c1ccccc41)-c1ccccc1-3)c1ccccc21 [NiPc]
